Results taken from US6737383B1, “Herbicidal oxadiazolidines” (priority 1999, dated 2004).

What was measured:
[1] = system: annual bluegrass; assay: Test E annual bluegrass; format: in vivo, Poa annua; settings: Postemergence
Protocol: (§1) Compounds evaluated in this test were formulated in a non-phytotoxic solvent mixture which included a surfactant and applied to plants that were in the 1- to 4-leaf stage (postemergence application). A mixture of sandy loam soil and greenhouse potting mix in a 60:40 ratio was used for the postemergence test.
(§2) Plantings of these crops and weed species were adjusted to produce plants of appropriate size for the postemergence test. All plant species were grown using normal greenhouse practices. Crop and weed species include annual bluegrass (Poa annua), blackgrass (Alopecurus myosuroides), black nightshade (Solanum nigra), chickweed (Stellaria media), common poppy (Papaver rhoeas), deadnettle (Lamium amplexicaule), downy brome (Bromus tectorum), field violet (Viola arvensis), galium (Galium aparine), green foxtail (Setaria viridis), Italian ryegrass (Lolium multiflorum), jointed goatgrass (Aegilops cylindrica), kochia (Kochia scoparia), lambsquarters (Chenopodium album), littleseed canarygrass (Phalaris minor), rape (Brassica napus), redroot pigweed (Amaranthus retroflexus), Russian thistle (Salsola kali), scentless chamomile (Matricaria inodora), spring barley (Hordeum vulgare), sugar beet (Beta vulgaris), sunflower (Helianthus annuus), ivyleaf speedwell (Veronica hederaefolia), spring wheat (Triticum aestivum), winter wheat (Triticum aestivum), wild buckwheat (Polygonum convolvulus), wild mustard (Sinapis arvensis), wild oat (Avena fatua), windgrass (Apera spica-venti) and winter barley (Hordeum vulgare).
(§3) Treated plants and untreated controls were maintained in a greenhouse for approximately 21 to 28 days, after which all treated plants were compared to untreated controls and visually evaluated. […] A dash response (-) means no test result.

[2] = system: scentless chamomile; assay: Test E scentless chamomile; format: in vivo, Matricaria inodora; settings: Postemergence
Procedure, shortened: (§4)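 Each compound, carried in a non-phytotoxic solvent blend including surfactant, was applied (postemergence: over the top of young plants at 1- to 4-leaf stage). Plants stayed in the greenhouse about 21 to 28 days before visual comparison with untreated controls.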

[3] = system: deadnettle; assay: Test E deadnettle; format: in vivo, Lamium amplexicaule; settings: Postemergence
Protocol: as §1, §2, §3

[4] = system: wild buckwheat; assay: Test E wild buckwheat; format: in vivo, Polygonum convolvulus; settings: Preemergence
[5] = system: green foxtail; assay: Test E green foxtail; format: in vivo, Setaria viridis; settings: Postemergence
Procedure, shortened: as §4

[6] = system: wild mustard; assay: Test E wild mustard; format: in vivo, Sinapis arvensis; settings: Postemergence
Procedure, shortened: as §4

[7] = system: lambsquarters; assay: Test E lambsquarters; format: in vivo, Chenopodium album; settings: Preemergence
[8] = system: littleseed canarygrass; assay: Test E littleseed canarygrass; format: in vivo, Phalaris minor; settings: Postemergence
Protocol: as §1, §2, §3

[9] = system: downy brome; assay: Test E downy brome; format: in vivo, Bromus tectorum; settings: Preemergence
[10] = system: windgrass; assay: Test E windgrass; format: in vivo, Apera spica-venti; settings: Preemergence
[11] = system: common poppy; assay: Test E common poppy; format: in vivo, Papaver rhoeas; settings: Postemergence
Protocol: as §1, §2, §3

[12] = system: cotton; assay: Test C postemergence cotton; format: in vivo, Gossypium hirsutum; settings: 0 to 100 scale, 0 no effect, 100 complete control
Protocol: (§5) Compounds evaluated in this test were formulated in a non-phytotoxic solvent mixture which included a surfactant and applied to plants that were grown for various periods of time before treatment (postemergence application). A mixture of sandy loam soil and greenhouse potting mix in a 60:40 ratio was used for the postemergence test.
(§6) Plantings of these crops and weed species were adjusted to produce plants of appropriate size for the postemergence test. All plant species were grown using normal greenhouse practices. Crop and weed species include arrowleaf sida (Sida rhombifolia), barnyardgrass (Echinochloa crus-galli), cocklebur (Xanthium strumarium), common ragweed (Ambrosia elatior), corn (Zea mays), cotton (Gossypium hirsutum), eastern black nightshade (Solanum ptycanthum), fall panicum (Panicum dichotomiflorum), field bindweed (Convolvulus arvensis), giant foxtail (Setaria faberii), hairy beggarticks (Bidens pilosa), ivyleaf morningglory (Ipomoea hederacea), johnsongrass (Sorghum halepense), ladysthumb smartweed (Polygonum persicaria), lambsquarters (Chenopodium album), large crabgrass (Digitaria sanguinalis), purple nutsedge (Cyperus rotundus), redroot pigweed (Amaranthus retroflexus), soybean (Glycine max), surinam grass (Brachiaria decumbens), velvetleaf (Abutilon theophrasti) and wild poinsettia (Euphorbia heterophylla).
(§7) Treated plants and untreated controls were maintained in a greenhouse for approximately 14, to 21 days, after which all treated plants were compared to untreated controls and visually evaluated. Plant response ratings, summarized in Table C, were based upon a 0 to 100 scale where 0 was no effect and 100 was complete control. A dash response (−) means no test result.

[13] = system: fall panicum; assay: Test C postemergence fall panicum; format: in vivo, Panicum dichotomiflorum; settings: 0 to 100 scale, 0 no effect, 100 complete control
Procedure, shortened: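 Compounds in a non-phytotoxic solvent with surfactant were sprayed postemergence on greenhouse-grown plants in 60:40 sandy loam/potting mix. After about 14 to 21 days, visual ratings against untreated controls on a 0 (no effect) to 100 (complete control) scale.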

[14] = system: common ragweed; assay: Test C postemergence common ragweed; format: in vivo, Ambrosia elatior; settings: 0 to 100 scale, 0 no effect, 100 complete control
Protocol: as §5, §6, §7

[15] = system: ivyleaf morningglory; assay: Test C postemergence ivyleaf morningglory; format: in vivo, Ipomoea hederacea; settings: 0 to 100 scale, 0 no effect, 100 complete control
Protocol: as §5, §6, §7

[16] = system: barnyardgrass; assay: Test C postemergence barnyardgrass; format: in vivo, Echinochloa crus-galli; settings: 0 to 100 scale, 0 no effect, 100 complete control
Protocol: as §5, §6, §7

[17] = system: redroot pigweed; assay: Test C postemergence redroot pigweed; format: in vivo, Amaranthus retroflexus; settings: 0 to 100 scale, 0 no effect, 100 complete control
Protocol: as §5, §6, §7

[18] = Rate 250 g/ha, 0 to 100 scale (0 no effect, 100 complete control)
[19] = Rate 500 g/ha, 0 to 100 scale, 0 no effect, 100 complete control
[20] = Rate 125 g/ha, 0 to 100 scale (0 no effect, 100 complete control)
[21] = Rate 500 g/ha, 0 to 100 scale where 0 is no effect and 100 is complete control

For `CC(C)N(C(=O)n1oc(=O)n(C(C)C)c1=O)c1ccc(Cl)cc1` [Compound 114], the “Plant response rating, Annual bluegras” value ([1]; Rate 125 g/ha, 0 to 100 scale) was 0, the “Plant response rating, Annual bluegras” value [1, 18] was 30 and the “Plant response rating, Annual bluegras” value [1, 19] was 60. The “Plant response rating, Scentless chamo” value ([2]; Rate 125 g/ha, 0 to 100 scale) was 0, the “Plant response rating, Scentless chamo” value [2, 18] was 0 and the “Plant response rating, Scentless chamo” value [2, 19] was 0. The “Plant response rating, Deadnettle” value ([3]; Rate 125 g/ha, 0 to 100 scale) was 20, the “Plant response rating, Deadnettle” value [3, 18] was 10 and the “Plant response rating, Deadnettle” value [3, 19] was 70. For the same molecule, the “Plant response rating, Wild buckwheat” value [4, 20] was 20, the “Plant response rating, Wild buckwheat” value ([4]; Rate 250 g/ha, 0 to 100 scale) was 50 and the “Plant response rating, Wild buckwheat” value [4, 21] was 80. The “Plant response rating, Green foxtail” value ([5]; Rate 125 g/ha, 0 to 100 scale) was 20, the “Plant response rating, Green foxtail” value [5, 18] was 50 and the “Plant response rating, Green foxtail” value [5, 19] was 90. For the same molecule, the “Plant response rating, Wild mustard” value ([6]; Rate 125 g/ha, 0 to 100 scale) was 75, the “Plant response rating, Wild mustard” value [6, 18] was 50 and the “Plant response rating, Wild mustard” value [6, 19] was 70. For the same molecule, the “Plant response rating, Lambsquarters” value [7, 20] was 50, the “Plant response rating, Lambsquarters” value ([7]; Rate 250 g/ha, 0 to 100 scale) was 100 and the “Plant response rating, Lambsquarters” value [7, 21] was 100. For the same molecule, the “Plant response rating, LS canarygrass” value ([8]; Rate 125 g/ha, 0 to 100 scale) was 0, the “Plant response rating, LS canarygrass” value [8, 18] was 30 and the “Plant response rating, LS canarygrass” value [8, 19] was 60. The “Plant response rating, Downy brome” value [9, 20] was 10, the “Plant response rating, Downy brome” value ([9]; Rate 250 g/ha, 0 to 100 scale) was 60 and the “Plant response rating, Downy brome” value [9, 21] was 50. For the same molecule, the “Plant response rating, Windgrass” value [10, 20] was 100, the “Plant response rating, Windgrass” value [10, 21] was 100 and the “Plant response rating, Comnion poppy” value ([11]; Rate 125 g/ha, 0 to 100 scale) was 0. For the same molecule, the “Plant response rating, Common poppy” value [11, 18] was 10 and the “Plant response rating, Common poppy” value [11, 19] was 20.

In the case of `CCn1c(=O)on(C(=O)N(c2ccccc2)C(C)C)c1=O` [Compound 117], the “Plant response rating Cotton” value ([12]; Rate 140 g/ha) is reported as 5, the “Plant response rating Cotton” value ([12]; Rate 280 g/ha) is reported as 10 and the “Plant response rating Cotton” value ([12]; Rate 560 g/ha) is reported as 30. The “Plant response rating Cotton” value ([12]; Rate 1120 g/ha) was 60, the “Plant response rating Fall panicum” value ([13]; Rate 140 g/ha) was 0 and the “Plant response rating Fall panicum” value ([13]; Rate 560 g/ha) was 40. For the same molecule, the “Plant response rating Fall panicum” value ([13]; Rate 1120 g/ha) was 80, the “Plant response rating Common ragweed” value ([14]; Rate 140 g/ha) was 0 and the “Plant response rating Common ragweed” value ([14]; Rate 280 g/ha) was 0. For the same molecule, the “Plant response rating Common ragweed” value ([14]; Rate 560 g/ha) was 20, the “Plant response rating Common ragweed” value ([14]; Rate 1120 g/ha) was 50 and the “Plant response rating I. morningglory” value ([15]; Rate 140 g/ha) was 0. The “Plant response rating I. morningglory” value ([15]; Rate 280 g/ha) was 0, the “Plant response rating I. morningglory” value ([15]; Rate 560 g/ha) was 0 and the “Plant response rating I. morningglory” value ([15]; Rate 1120 g/ha) was 0. The “Plant response rating, Barnyardgrass” value ([16]; Rate 140 g/ha) was 70, the “Plant response rating, Barnyardgrass” value ([16]; Rate 280 g/ha) was 80 and the “Plant response rating, Barnyardgrass” value ([16]; Rate 560 g/ha) was 90. For the same molecule, the “Plant response rating, Barnyardgrass” value ([16]; Rate 1120 g/ha) was 90, the “Plant response rating, Redroot pigweed” value ([17]; Rate 140 g/ha) was 0 and the “Plant response rating, Redroot pigweed” value ([17]; Rate 280 g/ha) was 0. The “Plant response rating, Redroot pigweed” value ([17]; Rate 560 g/ha) was 0 and the “Plant response rating, Redroot pigweed” value ([17]; Rate 1120 g/ha) was 30.
